Key:
AGAL3 = target: T1, AGAL3 (Turicibacter bilis, UniProt A0A9Q9CI38); experiment: pNP-αGal colorimetric assay with additive; format: biochemical; conditions: 5 mM maltose; pNP-αGal substrate
T1 sequence (A0A9Q9CI38 1-743): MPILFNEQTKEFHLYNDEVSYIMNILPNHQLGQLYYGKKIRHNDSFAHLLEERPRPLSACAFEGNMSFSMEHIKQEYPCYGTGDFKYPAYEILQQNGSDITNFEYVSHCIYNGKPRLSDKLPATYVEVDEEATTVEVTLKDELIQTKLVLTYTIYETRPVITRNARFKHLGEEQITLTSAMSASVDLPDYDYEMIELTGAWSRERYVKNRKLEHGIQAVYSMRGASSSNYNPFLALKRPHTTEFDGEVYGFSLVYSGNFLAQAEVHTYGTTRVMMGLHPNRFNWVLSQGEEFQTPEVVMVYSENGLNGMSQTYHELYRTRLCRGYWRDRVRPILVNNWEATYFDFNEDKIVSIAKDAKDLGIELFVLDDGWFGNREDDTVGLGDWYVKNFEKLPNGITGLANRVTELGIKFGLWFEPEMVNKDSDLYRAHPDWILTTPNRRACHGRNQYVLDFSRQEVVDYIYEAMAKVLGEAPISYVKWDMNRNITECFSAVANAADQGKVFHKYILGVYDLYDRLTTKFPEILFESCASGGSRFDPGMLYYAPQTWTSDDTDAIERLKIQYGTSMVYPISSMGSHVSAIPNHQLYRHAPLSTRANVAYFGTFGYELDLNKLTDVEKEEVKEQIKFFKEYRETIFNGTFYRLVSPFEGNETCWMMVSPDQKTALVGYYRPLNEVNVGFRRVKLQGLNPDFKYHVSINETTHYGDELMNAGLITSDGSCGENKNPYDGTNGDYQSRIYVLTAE

AGAL5 = target: T2, AGAL5 (Blautia pseudococcoides, UniProt A0A1C7IHX3); experiment: pNP-αGal colorimetric assay with additive; format: biochemical; conditions: 5 mM maltose; pNP-αGal substrate
T2 sequence (A0A1C7IHX3 1-763): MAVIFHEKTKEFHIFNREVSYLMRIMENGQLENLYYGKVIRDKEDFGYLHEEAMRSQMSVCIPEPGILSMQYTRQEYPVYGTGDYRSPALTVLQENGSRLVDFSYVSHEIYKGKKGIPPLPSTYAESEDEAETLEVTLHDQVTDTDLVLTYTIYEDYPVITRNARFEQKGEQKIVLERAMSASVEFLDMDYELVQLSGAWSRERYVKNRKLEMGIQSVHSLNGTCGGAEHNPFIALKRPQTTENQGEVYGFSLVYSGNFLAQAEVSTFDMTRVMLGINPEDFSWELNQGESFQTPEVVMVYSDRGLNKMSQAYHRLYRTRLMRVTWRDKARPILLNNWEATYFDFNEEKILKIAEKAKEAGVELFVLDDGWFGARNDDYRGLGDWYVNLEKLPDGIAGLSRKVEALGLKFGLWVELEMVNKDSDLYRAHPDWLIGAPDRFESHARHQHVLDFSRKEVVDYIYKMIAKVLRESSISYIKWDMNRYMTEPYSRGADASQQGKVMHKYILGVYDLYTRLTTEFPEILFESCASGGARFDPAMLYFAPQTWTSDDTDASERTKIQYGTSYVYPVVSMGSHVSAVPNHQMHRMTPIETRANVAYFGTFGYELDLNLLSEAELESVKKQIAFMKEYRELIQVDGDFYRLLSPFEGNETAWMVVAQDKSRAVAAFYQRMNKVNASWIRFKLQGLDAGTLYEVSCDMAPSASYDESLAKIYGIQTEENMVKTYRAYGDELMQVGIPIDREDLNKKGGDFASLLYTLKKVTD

## OC[C@H]1O[C@H](O[C@H]2[C@H](O)[C@@H](O)C(O)O[C@@H]2CO)[C@H](O)[C@@H](O)[C@@H]1O (some centres unmarked) [maltose]
AGAL3
  inhibition at 5 mM: maltose had an inhibitory effect on AGAL3 and AGAL5
AGAL5
  inhibition at 5 mM: maltose had an inhibitory effect on AGAL3 and AGAL5

Source: paper PMC11329505 (Communications Chemistry, 2024)
